Measured values taken from PubChem BioAssay (NCI).
“And” between values parts separate entries of the source, which are not always exact repeats. Equal entries are not always repeated.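 Five compound concentrations were applied to cells in 96-well plates for 48 hours; endpoints were derived by simple linear interpolation of the resulting dose-response curve. GI50 = concentration required for 50% inhibition of growth. TGI: concentration producing complete growth inhibition.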

Key:
Test in all cases: inhibition of tumour cell growth, NCI panel, 48 h
[1] = system: HOP-18 NSCLC
[2] = system: MDA-MB-231 breast
[3] = system: OVCAR-4 ovarian
[4] = system: KM20L2 colon
[5] = system: DMS 273 small cell lung
[6] = system: DLD-1 colon
[7] = system: XF 498 CNS
[8] = system: T-47D breast
[9] = system: DMS 114 small cell lung
[10] = system: HS 578T breast

| SMILES | TGI [1] [µM] | TGI [2] | TGI [3] | TGI [4] [µM] | TGI [5] [µM] | TGI [6] [µM] | TGI [7] [µM] | TGI [8] | TGI [9] | TGI [10] | GI50 [2] | GI50 [3] | GI50 [10] | GI50 [8] | GI50 [4] [µM] | GI50 [6] [µM] | GI50 [9] [µM] |
| --- | --- | --- | --- | --- | --- | --- | --- | --- | --- | --- | --- | --- | --- | --- | --- | --- | --- |
| Cc1ccccc1Nc1nc2c(s1)C(=O)c1ccccc1C2=O | 24.9 | 15 µM | 5.13 µM | > 65.4 | 21.4 | 13.6 | 29.3 | 27.5 µM | 4.69 µM | – | – | – | – | – | – | – | – |
| CC1(Cc2ccccc2)NC(=S)NC1=O (stereo not drawn) | 8.35 | – | – | > 100 | > 100 | > 100 | – | – | > 100 µM | – | – | – | – | – | – | – | – |
| O=c1ncccn1C1C=C(CO)C(O)C1O (stereo not drawn) | > 50 | – | > 50 µM | > 50 | > 50 | > 50 | > 50 | – | > 50 µM | – | – | – | – | – | – | – | – |
| Cc1cc2c(Br)cc(Br)c(O)c2nc1C(=O)c1ccccc1 | 70.4 | 78.5 µM | > 100 µM | 82.5 | 42.3 | > 100 | – | 74.6 µM | 97.7 µM | > 100 µM | – | – | – | – | – | – | – |
| CC1(C)OC2COC3(CNO)OC(C)(C)OC3C2O1 (stereo not drawn) | > 100 | – | > 100 µM | – | > 100 | > 100 | – | – | > 100 µM | – | – | – | – | – | – | – | – |
| Cc1nnc(N/N=C(/C(=O)C(C#N)c2ccccc2)C(C#N)c2ccccc2)n1N (stereo not drawn) | 28.6 | – | > 54.9 µM | > 100 | 34.4 | 59.9 | – | – | 13.4 µM | – | – | – | – | – | – | – | – |
| CC1(c2ccccc2)CC(c2ccccc2)=NO1 (stereo not drawn) | > 100 | – | > 100 µM | – | > 100 | > 100 | – | – | > 100 µM | – | – | – | – | – | – | – | – |
| CC(C)c1ccccc1NC(=O)/C(Cl)=C1/Sc2ccccc2NC1=O | – | – | > 100 µM | 59.7 | – | > 100 | – | – | 53.4 µM | – | – | – | – | – | – | – | – |
| O=C/C(=C(/Cl)c1ccc(O)cc1)c1ccccc1 | > 31.6 | – | > 54 µM | > 59.8 | 48 | > 60.1 | > 45.4 | – | 31.2 µM | – | – | – | – | – | – | – | – |
| O=C1C2=C(c3ccccc31)C(c1ccccc1Cl)N1C(=O)CCSC1=N2 (stereo not drawn) | – | – | > 100 µM | > 100 | > 100 | > 100 | > 100 | – | > 100 µM | – | – | – | – | – | – | – | – |
| Cl[Si]1(Cl)Oc2ccccc2O[Si](Cl)(Cl)Oc2ccccc2O1 | – | – | 24.7 µM | > 100 | 31.3 | > 100 | 30.3 | – | 6.03 µM | – | – | – | – | – | – | – | – |
| COc1cccc(/C=C2\CCC(C)(CN(C)C)C2=O)c1 (stereo not drawn) | > 100 | – | > 100 µM | > 100 | > 100 | > 100 | > 100 | – | > 100 µM | – | – | – | – | – | – | – | – |
| NC(=O)/C=C/C(=O)O | > 5000 | – | > 5000 µM | – | > 5000 | > 5000 | – | – | > 5000 µM | – | – | – | – | – | – | – | – |
| CCOC(=O)c1ccc(N[C@@H]2c3cc4c(cc3C(C3=CC(=O)C(=O)C(OC)=C3)[C@H]3C(=O)OCC32)OCO4)cc1 (stereo partly drawn) | – | – | > 83 µM | 32.1 | 13.5 | > 39.8 | 9.38 | – | 6.89 µM | – | – | – | – | – | – | – | – |
| CCN(CC)CC(=O)N1CCc2c([nH]c3ccccc23)C1c1cccnc1 (stereo not drawn) | > 100 | – | > 100 µM | > 100 | > 100 | > 100 | > 100 | – | > 100 µM | – | – | – | – | – | – | – | – |
| CCN(CC)CCNC(=O)c1c(C)[nH]c(/C=C2\C(=O)Nc3ccc(F)cc32)c1C | – | > 10 µM and 6.68 µM and 14.5 µM | > 10 µM and 9.23 µM and 15 µM | – | – | – | – | > 10 µM and > 20 µM and 35.3 µM | – | > 10 µM and 17.7 µM and 15.3 µM | 7.2 µM and 3.26 µM and 3.52 µM | > 10 µM and 2.41 µM and 2.76 µM | 3.01 µM and 3.57 µM and 2.4 µM | > 10 µM and > 20 µM and 15.9 µM | – | – | – |
| O=c1c2c3c(sc2n2c(-c4cc(-c5ccccc5)nn4-c4ccccc4)nnc2n1Cc1ccccc1)CCCC3 | – | > 100 µM | > 100 µM | – | – | – | – | > 100 µM | – | > 100 µM | > 100 µM | > 100 µM | 48 µM | > 100 µM | – | – | – |
| CCCCCCCCCCCC[n+]1ccccc1 (tested in a mixture with another compound) | – | 3.37 µM | 12.4 µM | – | – | – | – | 3.94 µM | – | 5.15 µM | 1.22 µM | 0.683 µM | 1.71 µM | 0.375 µM | – | – | – |
| C=CCC1[C@@H](C(C)(C)C(C(C)=O)C(=O)C(=O)OC)OC(C(C)(C)C)N1C(=O)OC (stereo partly drawn) | > 100 | – | > 100 µM | > 100 | – | > 100 | > 100 | – | – | – | – | – | – | – | – | – | – |
| O=C(NC12CC3CC(CC(C3)C1)C2)C(=O)c1c[nH]c2ccc(Cl)cc12 | – | – | 56 µM | > 100 | > 100 | – | 43 | – | > 100 µM | – | – | – | – | – | – | – | – |
| O=S(=O)(CCOCc1ccc(-c2ccc3ncnc(Nc4ccc(OCc5cccc(F)c5)c(Cl)c4)c3c2)o1)c1ccccc1 | – | > 25 µM | > 25 µM | – | – | – | – | > 25 µM | – | > 25 µM | > 25 µM | > 25 µM | > 11 µM | > 6.73 µM | – | – | – |
| CC1(C)N=C(N)N=C(N)N1c1ccc(OCC(=O)Nc2ccccc2)c(Cl)c1 | – | > 100 µM | > 100 µM | – | – | – | – | > 100 µM | – | > 100 µM | > 100 µM | 15.8 µM | > 100 µM | > 65.8 µM | – | – | – |
| Cc1ccc2nc3c(Cl)c(C)c(=O)cc-3sc2c1 | – | – | > 100 µM | > 100 | > 100 | > 100 | – | – | > 1 µM and 76 µM | – | – | 61.7 µM | – | – | > 100 | 42.6 | 25.4 |
